Assay results: patent US10478445B2, “Boronic acid derivatives of resveratrol for activating deacetylase enzymes” (Georgetown University, priority 2013, dated 2019)

Key:
mtp53 = test: Western blot analysis of acetyl-mtp53 (K382) and mtp53 level; format: cell-based; conditions: HS578T; 10 μM suramin 1 hr, then 1 μM YK-3-237 23 hr
Procedure: Preparation of cell lysates and western blot analyses were performed. Antibodies were obtained from the following sources: Ac-p53 (K382; #2525), Ac-α-tubulin (K40; #3971), phospho-ACC (S78; #3661), and ACC (#3676) from Cell Signaling (Danvers, Mass.); PARP (#556494) from BD Pharmingen (San Jose, Calif.); p53 (V1003) from Biomeda (Foster City, Calif.); ERα (sc-543) and SIRT1 (sc-15404) from Santa Cruz (Santa Cruz, Calif.); α-tubulin, β-Actin (A1978), and horseradish peroxidase-conjugated secondary antibodies from Sigma (St. Louis, Mo.). Chemiluminescence reagent was obtained from Santa Cruz or Thermo Scientific (Rockford, Ill.).

[1] = target: T1, purified human SIRT1 enzyme (Homo sapiens, UniProt Q96EB6); test: In vitro SIRT assay (Fluor-de-Lys-SIRT1 deacetylase assay); format: biochemical; conditions: 50 μM of suramin added to reaction
T1 construct: purchased Enzo Life Sciences
T1 sequence (Q96EB6 1-747): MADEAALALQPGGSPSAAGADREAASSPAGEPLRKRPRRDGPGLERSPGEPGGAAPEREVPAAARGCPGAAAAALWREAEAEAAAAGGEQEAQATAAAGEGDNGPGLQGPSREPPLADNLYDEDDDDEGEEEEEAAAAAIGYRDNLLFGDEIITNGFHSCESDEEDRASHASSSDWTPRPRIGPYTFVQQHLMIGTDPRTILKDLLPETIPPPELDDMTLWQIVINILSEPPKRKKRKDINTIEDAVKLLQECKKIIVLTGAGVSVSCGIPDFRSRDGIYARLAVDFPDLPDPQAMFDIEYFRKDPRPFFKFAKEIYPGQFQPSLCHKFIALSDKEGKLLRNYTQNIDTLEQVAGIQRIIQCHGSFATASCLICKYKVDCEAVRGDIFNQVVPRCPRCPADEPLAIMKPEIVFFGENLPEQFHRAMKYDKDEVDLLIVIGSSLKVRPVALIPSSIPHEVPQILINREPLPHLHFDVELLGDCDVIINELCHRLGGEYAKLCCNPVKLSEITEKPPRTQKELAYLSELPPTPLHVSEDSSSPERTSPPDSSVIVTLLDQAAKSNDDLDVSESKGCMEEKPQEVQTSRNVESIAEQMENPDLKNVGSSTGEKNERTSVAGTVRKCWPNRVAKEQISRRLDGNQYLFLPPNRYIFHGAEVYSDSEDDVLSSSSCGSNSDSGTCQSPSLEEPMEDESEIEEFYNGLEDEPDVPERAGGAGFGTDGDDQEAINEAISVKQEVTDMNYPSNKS
Procedure: The Fluor-de-Lys-SIRT1 and SIRT2 deacetylase assay were performed as manufacturer's instruction (Enzo Life Sciences, Farmingdale, N.Y.). For competition assay, 50 μM of suramin was added to reaction.

[2] = target: T1, purified human SIRT1 enzyme; conditions: reported; cited from earlier work
acetyl-p53 = conditions: reported; cited from earlier work

| SMILES | effect of pre-treatment on YK-3-237-mediated deacetylation and reduction of mtp53 (mtp53) | effect on YK-3-237-mediated SIRT1 activation (competition assay) [1] | in vitro SIRT1 activity toward nascent p53 peptide [2] | acetyl-p53 in cells (acetyl-p53) |
| --- | --- | --- | --- | --- |
| Cc1ccc(C(=O)Nc2ccc(S(=O)(=O)O)c3cc(S(=O)(=O)O)cc(S(=O)(=O)O)c23)cc1NC(=O)c1cccc(NC(=O)Nc2cccc(C(=O)Nc3cc(C(=O)Nc4ccc(S(=O)(=O)O)c5cc(S(=O)(=O)O)cc(S(=O)(=O)O)c45)ccc3C)c2)c1 [suramin] | reversed both deacetylation of mtp53 (K382) and reduction of mtp53 protein | antagonized YK-3-237-mediated SIRT1 activation |  |  |
| O=C(Nc1ccccc1-c1cn2c(CN3CCNCC3)csc2n1)c1cnc2ccccc2n1 [SRT1720] |  |  | could not activate in vitro SIRT1 activity toward nascent p53 peptide | reduce acetyl-p53 in cells |
